# Test results from PMC11211886 (Frontiers in Pharmacology, 2024).
# Read-outs that look alike come from different tables or passages of the source.
# Key:
# BCRP = biological target: T1, BCRP (Homo sapiens, UniProt Q9UNQ0); assay: in vitro; conditions: human
# T1 sequence (Q9UNQ0 1-655): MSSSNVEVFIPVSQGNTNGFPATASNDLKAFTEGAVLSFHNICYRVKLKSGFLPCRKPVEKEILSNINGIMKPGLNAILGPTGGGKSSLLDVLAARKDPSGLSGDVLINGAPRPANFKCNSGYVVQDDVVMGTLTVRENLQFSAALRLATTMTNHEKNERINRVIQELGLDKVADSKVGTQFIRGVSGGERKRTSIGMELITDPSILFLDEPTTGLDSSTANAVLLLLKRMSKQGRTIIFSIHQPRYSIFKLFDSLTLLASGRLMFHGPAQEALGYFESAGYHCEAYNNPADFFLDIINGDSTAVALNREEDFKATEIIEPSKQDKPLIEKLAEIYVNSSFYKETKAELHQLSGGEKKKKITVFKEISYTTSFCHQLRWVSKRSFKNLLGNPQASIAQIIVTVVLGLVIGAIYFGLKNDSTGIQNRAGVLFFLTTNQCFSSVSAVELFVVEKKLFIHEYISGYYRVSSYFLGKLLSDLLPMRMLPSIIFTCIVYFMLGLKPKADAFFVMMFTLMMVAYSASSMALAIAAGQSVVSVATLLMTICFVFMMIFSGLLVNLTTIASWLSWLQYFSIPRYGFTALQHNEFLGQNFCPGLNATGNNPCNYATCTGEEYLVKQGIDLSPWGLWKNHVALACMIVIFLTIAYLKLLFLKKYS
# Text: (§1) The experimental conditions were similar to those of the permeability study.
# P-gp = P-gp (Homo sapiens, UniProt P08183); assay: P-gp inhibition, digoxin transport across Caco-2 monolayers
# P-gp, sequence (P08183 whole entry): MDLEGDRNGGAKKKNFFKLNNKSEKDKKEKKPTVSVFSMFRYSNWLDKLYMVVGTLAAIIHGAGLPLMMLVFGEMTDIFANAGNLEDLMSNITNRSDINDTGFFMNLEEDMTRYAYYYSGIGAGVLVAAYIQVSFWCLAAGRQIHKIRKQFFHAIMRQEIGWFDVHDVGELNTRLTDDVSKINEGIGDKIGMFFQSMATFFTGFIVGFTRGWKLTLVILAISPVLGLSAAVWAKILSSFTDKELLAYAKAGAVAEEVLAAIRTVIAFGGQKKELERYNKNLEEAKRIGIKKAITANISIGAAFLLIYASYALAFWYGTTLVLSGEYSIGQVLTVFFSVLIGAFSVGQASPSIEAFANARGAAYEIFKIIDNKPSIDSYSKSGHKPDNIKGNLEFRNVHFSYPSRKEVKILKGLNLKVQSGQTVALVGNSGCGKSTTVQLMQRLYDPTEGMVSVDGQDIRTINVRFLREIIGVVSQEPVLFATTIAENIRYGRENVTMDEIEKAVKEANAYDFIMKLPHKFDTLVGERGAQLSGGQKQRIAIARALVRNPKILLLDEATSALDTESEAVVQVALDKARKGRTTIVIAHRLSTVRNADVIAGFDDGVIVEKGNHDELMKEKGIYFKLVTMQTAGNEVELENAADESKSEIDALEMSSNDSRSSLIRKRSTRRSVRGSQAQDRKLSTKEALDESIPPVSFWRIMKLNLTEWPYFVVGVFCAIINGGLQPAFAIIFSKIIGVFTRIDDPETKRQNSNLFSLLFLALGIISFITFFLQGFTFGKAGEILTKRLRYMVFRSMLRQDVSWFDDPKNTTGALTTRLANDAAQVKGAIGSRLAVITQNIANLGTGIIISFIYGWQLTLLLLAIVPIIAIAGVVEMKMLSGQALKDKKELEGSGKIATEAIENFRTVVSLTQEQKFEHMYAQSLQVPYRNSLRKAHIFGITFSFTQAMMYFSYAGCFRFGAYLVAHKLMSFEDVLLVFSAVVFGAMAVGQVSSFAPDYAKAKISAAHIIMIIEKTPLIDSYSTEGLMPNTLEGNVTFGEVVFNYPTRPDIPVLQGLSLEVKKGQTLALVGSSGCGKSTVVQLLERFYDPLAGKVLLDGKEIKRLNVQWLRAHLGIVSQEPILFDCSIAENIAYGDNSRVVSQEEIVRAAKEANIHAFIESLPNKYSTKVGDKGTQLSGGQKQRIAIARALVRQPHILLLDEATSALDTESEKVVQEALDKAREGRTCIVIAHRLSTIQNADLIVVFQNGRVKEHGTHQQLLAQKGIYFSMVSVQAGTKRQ
# Text: as §1
# [1] = Metabolic stability in mouse liver microsomes; assay type: in vitro ADME
# Experimental: FMO was deactivated by heating liver microsomes at 45°C for 5 min. […] (1) metabolic clearance is the major mechanism of clearance; (2) liver is the major organ of clearance; and (3) oxidation is the major metabolic pathway. CLint,in vitro=k / Cmicrosomes , Scaled CLint,in vivo=CLint,in vitro×microsomes yield×liver weight, where Cmicrosomes means the experimental protein concentration (0.5 mg/mL) in the incubation system.
# MATE1 = biological target: T2, MATE1 (Homo sapiens, UniProt Q96FL8); assay: MATE1 inhibition, tetraethylammonium uptake in transfected HEK293 cells
# T2 sequence (Q96FL8 1-570): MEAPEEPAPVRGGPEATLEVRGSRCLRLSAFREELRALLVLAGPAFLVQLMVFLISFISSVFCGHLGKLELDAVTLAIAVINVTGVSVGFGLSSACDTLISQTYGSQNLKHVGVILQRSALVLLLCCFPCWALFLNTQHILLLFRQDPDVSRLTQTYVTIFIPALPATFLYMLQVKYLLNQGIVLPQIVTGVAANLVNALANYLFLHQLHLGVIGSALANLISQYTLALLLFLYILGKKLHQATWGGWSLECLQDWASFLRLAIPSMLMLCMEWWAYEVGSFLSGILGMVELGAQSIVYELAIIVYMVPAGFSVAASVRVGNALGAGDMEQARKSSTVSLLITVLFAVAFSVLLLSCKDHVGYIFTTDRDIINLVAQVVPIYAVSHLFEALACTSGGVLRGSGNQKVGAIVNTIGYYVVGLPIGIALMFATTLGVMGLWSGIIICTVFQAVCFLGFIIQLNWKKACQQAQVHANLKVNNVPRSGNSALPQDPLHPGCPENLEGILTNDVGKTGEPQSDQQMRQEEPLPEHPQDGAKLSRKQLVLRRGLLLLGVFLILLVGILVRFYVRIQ
# Experimental: The pre-incubation solutions were removed, and incubation solutions containing the inhibitors and probe substrates (or transport buffer containing an equal volume of vehicle control and probe substrates) were added and incubated at 37°C for 2 min (5 min for OATP1B3). The probe substrate for OAT1 was 4-aminohippuric acid (10 μM), for OAT3 was estrone 3-sulfate (10 μM), for OCT2 was metformin (100 μM), for OATP1B1 was β-estradiol 17-(β-D-glucuronide) (5 μM), for OATP1B3 was β-estradiol 17-(β-D-glucuronide) (10 μM), and for MATE1 and MATE2-K was tetraethylammonium (10 μM). After incubation, cells were washed three times with ice-cold transport buffer (25 mM HEPES, pH 7.4, pH 8.0 for overexpressing MATE1 and MATE2-K HEK293 cells) and lysed in distilled water. The concentrations of probe substrates were determined by LC-MS/MS, and a BCA Kit (Solarbio ®Life Sciences, Beijing, China) was used to determine the protein content in the cell lysate.
# where C is the concentration of the drug in the cell lysate (nM), P is the protein concentration of the cell lysate (mg/mL), and T is the incubation time (minute). Uptake ratetest compound is the uptake rate of the substrate in the presence of the test compound. Uptake ratevehicle control is the uptake rate of the substrate in the presence of the vehicle control. Uptake ratepassive is the uptake rate of the substrate in the presence of the positive inhibitor at the top test concentration.
compound,measurement,setting,value
C[C@H](Nc1ncnc(N)c1C#N)c1cc2ncc(Cl)n2nc1-c1ccccc1 [Amdizalisib],"inhibition at 60 min, 0.1 µM",BCRP,28.5%
same,"inhibition at 60 min, 0.5 µM",BCRP,34.2%
same,"inhibition at 60 min, 2 µM",BCRP,21.3%
same,"inhibition at 60 min, 5 µM",BCRP,24.2%
same,"inhibition at 60 min, 10 µM",BCRP,43.6%
same,"inhibition at 60 min, 40 µM",BCRP,52.9%
same,"inhibition at 60 min, 60 µM",BCRP,66.4%
same,"inhibition at 60 min, 80 µM",BCRP,52%
same,IC50,P-gp,22.9 µM
same,"inhibition at 60 min, 0.5 µM",P-gp; human,-3.22%
same,"inhibition at 60 min, 2 µM",P-gp; human,1.75%
same,"inhibition at 60 min, 5 µM",P-gp; human,17%
same,"inhibition at 60 min, 20 µM",P-gp; human,46.5%
same,"inhibition at 60 min, 40 µM",P-gp; human,58.4%
same,"inhibition at 60 min, 60 µM",P-gp; human,75.9%
same,"inhibition at 60 min, 80 µM",P-gp; human,83.6%
same,CLint scaled at 1 µM,"[1]; female, mouse, microsomes, pH 7.4, Predicted CL int, iv vivo",52.8 mL/min/kg
same,half-life at 1 µM,"[1]; female, mouse, microsomes, pH 7.4, in vitro t1/2",1.7 h
same,CLint scaled at 1 µM,"[1]; male, mouse, microsomes, pH 7.4, Predicted CL int, iv vivo",50.4 mL/min/kg
same,half-life at 1 µM,"[1]; male, mouse, microsomes, pH 7.4, in vitro t1/2",1.8 h
same,half-life at 1 µM,"[1]; pH 7.4, female mouse liver microsomes, FMO deactivation, read-out: in vitro t1/2",1.72 h
same,CLint scaled at 1 µM,"[1]; pH 7.4, female mouse liver microsomes, normal, read-out: Predicted CL int, iv vivo",53.6 mL/min/kg
same,IC50,MATE1,16.2 µM
same,calculated R value (MATE-1),MATE1,< 1.1
same,Percentage transported,"MATE1; MATE1, compound 0.3 μM",98.0%
same,Uptake rate,"MATE1; MATE1, compound 0.3 μM",244±23.4 pmol/mg protein/min
same,Percentage transported,"MATE1; MATE1, compound 1 μM",86.1%
same,Uptake rate,"MATE1; MATE1, compound 1 μM",216±1.37 pmol/mg protein/min
same,Percentage transported,"MATE1; MATE1, compound 3 μM",73.2%
same,Uptake rate,"MATE1; MATE1, compound 3 μM",186±12.4 pmol/mg protein/min
same,Percentage transported,"MATE1; MATE1, compound 10 μM",49.2%
same,Uptake rate,"MATE1; MATE1, compound 10 μM",129±1.08 pmol/mg protein/min
same,Percentage transported,"MATE1; MATE1, compound 30 μM",47.8%
same,Uptake rate,"MATE1; MATE1, compound 30 μM",126±22.8 pmol/mg protein/min
same,Percentage transported,"MATE1; MATE1, compound 100 μM",23.6%
same,Uptake rate,"MATE1; MATE1, compound 100 μM",68.4±2.28 pmol/mg protein/min
same,"inhibition at 2 min, 0.3 µM","MATE1; human, pH 8",2.01%
same,"inhibition at 2 min, 1 µM","MATE1; human, pH 8",13.9%
same,"inhibition at 2 min, 3 µM","MATE1; human, pH 8",26.8%
same,"inhibition at 2 min, 10 µM","MATE1; human, pH 8",50.8%
same,"inhibition at 2 min, 30 µM","MATE1; human, pH 8",52.2%
same,"inhibition at 2 min, 100 µM","MATE1; human, pH 8",76.4%
